Laboratory results from patent publication US20170049782A1 (SK CHEMICALS CO., LTD., priority 2014, published 2017).
Like-named read-outs stand apart in the source and are kept apart here.

Experiments:
[1] = Solubility / dissolved fraction of active ingredient (I) in water (background); type: physicochemical
Source text: At single administration and repetitive administration, there is a difference in blood concentration depending on whether taking food or not, and food intake is blamed for causing the difference (Xia et al., British Journal of Clinical Pharmacology, 2009, 68:1, p 77-88). This is a reason for decrease of drug efficacy to patients taking food irregularly, and a negative cause, which may make patients feel uncomfortable for taking drug. […] Thus, its bioavailability reach to 100% when it is administered with food because residual insoluble drugs are absorbed by oil content present in the food and a surfactant such as bile acid secreted in the body (Samama et al. Thrombosis Journal 2013, 11:11, p 1-7).

[2] = cited from earlier work

**Q.** Which “drug dissolved in dissolution solution” value ([1]; 10 mg in 900 ml) does the source give for `O=C(NC[C@H]1CN(c2ccc(N3CCOCC3=O)cc2)C(=O)O1)c1ccc(Cl)s1` [active ingredient (I)] here?
**A.** ≥ 90%

**Q.** And the “drug dissolved in dissolution solution” value ([1]; 20 mg in 900 ml)?
**A.** 50%

**Q.** And the bioavailability ([2]; 10 mg, regardless of a meal)?
**A.** 100%

**Q.** And the bioavailability ([2]; 20 mg, administered before a meal / under fasted condition)?
**A.** about 66%

**Q.** And the bioavailability ([2]; 20 mg, administered with food)?
**A.** 100%
